Data published in US9649314B2, “Pyrimido[4,5-b]quinoline-4,5(3H,10H)-diones” (NOVARTIS AG, priority 2012, dated 2017).
Read-outs that look alike come from different tables or passages of the source.

Tested on: CFTR-Y122X
Test: CFTR-Y122X assay (dual reporter isogenic Hek293 cell lines, Renilla luminescence readthrough)
Format: cell-based
Settings: Homo sapiens; for Emax at 25 µM: measured at 25 μM compound concentration (footnote a)
Excerpt: Activity of compounds of the present invention was examined in recombinant, dual reporter isogenic Hek293 cell lines (“CFTR-Y122X assay”). The engineered reporter constructs contained the 18 bp sequence stretch corresponding to a common Y122X PTC mutation in CFTR class I mutant patients (see Sermet-Gaudelus, BMC Medicine, 2007, 5(5)). Instead of a tyrosine (Y) in position 122 of the CFTR protein a TGA stop codon interrupts the open reading frame (Y122X) of the corresponding mRNA. This TGA stop codon triplet (followed by the pyrimidine base cytosine) is permissive to aminoglycoside mediated translational readthrough which served as positive control for high throughput screening. A corresponding TAA stop codon variant and a wildtype non mutated construct was used for confirmation and counter screening. The CFTR sequence was sandwiched between an eGFP reporter, and a triple myc tag sequence fused to a full length Renilla reporter. All sequences, including an intron containing one positioned pre-eGFP (b-globin intron) were cloned in frame. The corresponding expression constructs were stably expressed in the isogenic HEK-R4 cell host (Invitrogen Incorp.) and selected by blasticidin resistance. The isogenic integration of the construct minimizes gene dose effects and improves assay reproducibility. Stably integrated single cell derived clones were selected and characterized for aminoglycoside mediated readthrough. […] Readthrough of Y122X accumulates an intracellular localized fusion protein approximately 65.5 kDa in size as controlled by western blot analysis and immunofluorescence using an anti-renilla antibody. The eGFP reporter pre-PTC mutation serves as visual control for genetic stability of the screening clones and minimizes protein degradation of small fusion protein amounts. In the assay, compound concentration was 10 μM. In miniaturized 1536 well format 2000 cells were dispensed in 4 μl/well and incubated for 24 h at 37° C., 5% CO2. 40 nl compounds were placed on the cells with control wells containing 1 ul Paramomycin and 14.4 mM final concentration. Compounds were incubated for 24 h. Renilla Glo substrate (2.5 ul) was added and plates were centrifuged and processed for luminescence measurement using various readers. Activity calculation was done using the equation: A1 (%)=100*(S−NC)/(AC−NC) where AC, NC and S correspond to active controls (injection of Stimulation buffer=100% stimulation), neutral controls (buffer injection which Iloprost EC10) and screening samples (S). NC corresponds to 0% activity whereas AC is 100% activity (14 mM paromomycin). False positive artefacts were removed in confirmation and validation screening using the same assay format followed by counterscreening using the respective wildtype construct (w/o PTC mutation) cell model. Compounds were tested up to 100 μM compound concentration.

[1] = HEK293, nonsense mutation suppression, 100% = 14 mM paromomycin, 24 h incubation, tested up to 100 μM, read-out: Amax [%]
[2] = HEK293, nonsense mutation suppression, 24 h incubation
[3] = HEK293, at the above dose ranges (up to 100 μM), read-out: suppression, % of paromomycin reference activity
[4] = HEK293, read-out: Amax [%]: % nonsense mutation suppression relative to paromomycin reference activity

SMILES | Emax [1] | AC50 [2] | other results
Cc1ccccc1-c1nc2c(c(=O)c3ccccc3n2C)c(=O)n1C1CCCCC1 [Example 2.37, 3-cyclohexyl-10-methyl-2-(o-tolyl)pyrimido[4,5-b]quinoline-4,5(3H,10H)-dione] | – | – | Emax at 100 µM (HEK293, measured at 100 μM compound concentration (footnote d), read-out: Amax [%]: % nonsense mutation suppression relative to paromomycin reference activity): 28%
CC(C)c1ccccc1-n1c(C(C)C)nc2c(c(=O)c3ccccc3n2C)c1=O [Example 1.38, 2-isopropyl-3-(2-isopropylphenyl)-10-methylpyrimido[4,5-b]quinoline-4,5(3H,10H)-dione] | 15% | – | –
CC(C)c1nc2c(c(=O)c3ccccc3n2C)c(=O)n1-c1ccccc1F [Example 1.15, 3-(2-fluorophenyl)-2-isopropyl-10-methylpyrimido[4,5-b]quinoline-4,5(3H,10H)-dione] | 169% | 7.8 µM | –
CC(C)c1nc2c(c(=O)c3cc(Cl)ccc3n2C)c(=O)n1C1CCCC1 [Example 2.11, 7-chloro-3-cyclopentyl-2-isopropyl-10-methylpyrimido[4,5-b]quinoline-4,5(3H,10H)-dione] | 192% | 10.7 µM | –
Cn1c2ccccc2c(=O)c2c(=O)n(C3CCCCCC3)c(-c3ccc(F)cc3)nc21 [3-cycloheptyl-2-(4-fluorophenyl)-10-methylpyrimido[4,5-b]quinoline-4,5(3H,10H)-dione] | – | – | Emax [3]: < 5%
Cn1c2ccccc2c(=O)c2c(=O)n(-c3ccccc3)c(C3CCC3)nc21 [Example 1.1, 2-cyclobutyl-10-methyl-3-phenylpyrimido[4,5-b]quinoline-4,5(3H,10H)-dione] | – | 1.3 µM | Emax (HEK293, 24 h, read-out: Amax [%]): 258%
CC(C)c1nc2c(c(=O)c3cc(C(F)(F)F)ccc3n2C)c(=O)n1-c1ccccc1 [2-isopropyl-10-methyl-3-phenyl-7-(trifluoromethyl)pyrimido[4,5-b]quinoline-4,5(3H,10H)-dione] | – | – | Emax [3]: < 5%
Cn1c2ccccc2c(=O)c2c(=O)n(C3CCCCCC3)c(-c3cccc([N+](=O)[O-])c3)nc21 [Example 2.46, 3-cycloheptyl-10-methyl-2-(3-nitrophenyl)pyrimido[4,5-b]quinoline-4,5(3H,10H)-dione] | 12% | 4.2 µM | –
Cn1c2ccccc2c(=O)c2c(=O)n(C3CCCC3)c(-c3ccccc3Cl)nc21 [Example 2.35, 2-(2-chlorophenyl)-3-cyclopentyl-10-methylpyrimido[4,5-b]quinoline-4,5(3H,10H)-dione] | 31% | 9.4 µM | –
COc1ccccc1-n1c(C(C)C)nc2c(c(=O)c3ccccc3n2C)c1=O [Example 1.19, 2-isopropyl-3-(2-methoxyphenyl)-10-methylpyrimido[4,5-b]quinoline-4,5(3H,10H)-dione] | – | – | Emax at 12.5 µM (HEK293, measured at 12.5 μM compound concentration (footnote b), read-out: Amax [%]: % nonsense mutation suppression relative to paromomycin reference activity): 16%
CCc1nc2c(c(=O)c3ccccc3n2C)c(=O)n1-c1ccccc1 [Example 1.31, 2-ethyl-10-methyl-3-phenylpyrimido[4,5-b]quinoline-4,5(3H,10H)-dione] | 177% | 10.6 µM | –
CCC(CC)c1nc2c(c(=O)c3ccccc3n2C)c(=O)n1-c1ccccc1 [Example 1.9, 10-methyl-2-(pentan-3-yl)-3-phenylpyrimido[4,5-b]quinoline-4,5(3H,10H)-dione] | 200% | 11.7 µM | –
CCn1c2ccccc2c(=O)c2c(=O)n(C3CCCC3)c(C(C)C)nc21 [Example 2.3, 3-cyclopentyl-10-ethyl-2-isopropylpyrimido[4,5-b]quinoline-4,5(3H,10H)-dione] | 101% | 21.6 µM | –
CCc1nc2c(c(=O)c3ccccc3n2C)c(=O)n1-c1cc(C)cc(C)c1 [Example 1.33, 3-(3,5-dimethylphenyl)-2-ethyl-10-methylpyrimido[4,5-b]quinoline-4,5(3H,10H)-dione] | 16% | 0.7 µM | –
Cn1c2ccccc2c(=O)c2c(=O)n(C3CCCCC3)c(-c3ccccc3)nc21 [Example 2.16, 3-cyclohexyl-10-methyl-2-phenylpyrimido[4,5-b]quinoline-4,5(3H,10H)-dione] | 312% | 8.6 µM | –
CCCCCCCc1nc2c(c(=O)c3ccccc3n2C)c(=O)n1-c1ccccc1 [Example 1.48, 2-heptyl-10-methyl-3-phenylpyrimido[4,5-b]quinoline-4,5(3H,10H)-dione] | 235% | 11.7 µM | –

SMILES | Emax [1] | AC50 [2] | other results
Cc1ccc2c(c1)c(=O)c1c(=O)n(-c3ccccc3)c(C(C)C)nc1n2C [Example 1.26, 2-isopropyl-7,10-dimethyl-3-phenylpyrimido[4,5-b]quinoline-4,5(3H,10H)-dione] | 254% | 9.6 µM | –
CCCc1nc2c(c(=O)c3ccccc3n2C)c(=O)n1-c1ccccc1 [Example 1.30, 10-methyl-3-phenyl-2-propylpyrimido[4,5-b]quinoline-4,5(3H,10H)-dione] | 262% | 6.5 µM | –
Cn1c2ccccc2c(=O)c2c(=O)n(C3CCCCCC3)c(-c3ccc(Cl)cc3Cl)nc21 [3-cycloheptyl-2-(2,4-dichlorophenyl)-10-methylpyrimido[4,5-b]quinoline-4,5(3H,10H)-dione] | – | – | Emax [3]: < 5%
CC(C)c1nc2c(c(=O)c3ccccc3n2C)c(=O)n1C1CCOCC1 [Example 2.7, 2-isopropyl-10-methyl-3-(tetrahydro-2H-pyran-4-yl)pyrimido[4,5-b]quinoline-4,5(3H,10H)-dione] | – | – | Emax at 25 µM [4]: 151%
Cn1c2ccccc2c(=O)c2c(=O)n(C3CCCCCC3)c(-c3ccc(C(C)(C)C)cc3)nc21 [2-(4-(tert-butyl)phenyl)-3-cycloheptyl-10-methylpyrimido[4,5-b]quinoline-4,5(3H,10H)-dione] | – | – | Emax [3]: < 5%
CN(C)c1nc2[nH]c3ccccc3c(=O)c2c(=O)n1-c1ccccc1 [Example 3.2, 2-(dimethylamino)-3-phenylpyrimido[4,5-b]quinoline-4,5(3H,10H)-dione] | 294% | 11.6 µM | –
CC(C)c1nc2c(c(=O)c3ccccc3n2C)c(=O)n1-c1cccc(Cl)c1 [Example 1.21, 3-(3-chlorophenyl)-2-isopropyl-10-methylpyrimido[4,5-b]quinoline-4,5(3H,10H)-dione] | 167% | 10.2 µM | –
CC(C)c1nc2[nH]c3ccccc3c(=O)c2c(=O)n1C1CCCC1 [Example 2.2, 3-cyclopentyl-2-isopropylpyrimido[4,5-b]quinoline-4,5(3H,10H)-dione] | 235% | 2.1 µM | –
Cn1c2ccccc2c(=O)c2c(=O)n(C3CCCC3)c(C(C)(C)C)nc21 [Example 2.6, 2-(tert-butyl)-3-cyclopentyl-10-methylpyrimido[4,5-b]quinoline-4,5(3H,10H)-dione] | – | – | Emax at 25 µM [4]: 127%
Cn1c2ccccc2c(=O)c2c(=O)n(C3CCCCC3)c(-c3ccc(Cl)cc3)nc21 [Example 2.44, 2-(4-chlorophenyl)-3-cyclohexyl-10-methylpyrimido[4,5-b]quinoline-4,5(3H,10H)-dione] | 16% | – | –
CC(C)c1nc2c(c(=O)c3cccc(Cl)c3n2C)c(=O)n1C1CCCC1 [Example 2.51, 9-chloro-3-cyclopentyl-2-isopropyl-10-methylpyrimido[4,5-b]quinoline-4,5(3H,10H)-dione] | – | – | Emax at 25 µM [4]: 6%
Cn1c2ccccc2c(=O)c2c(=O)n(C3CCCCCC3)c(-c3ccc(Cl)cc3)nc21 [2-(4-chlorophenyl)-3-cycloheptyl-10-methylpyrimido[4,5-b]quinoline-4,5(3H,10H)-dione] | – | – | Emax [3]: < 5%
O=c1c2ccccc2n(CCO)c2nc(C3CCC3)n(-c3ccccc3)c(=O)c12 [Example 1.39, 2-cyclobutyl-10-(2-hydroxyethyl)-3-phenylpyrimido[4,5-b]quinoline-4,5(3H,10H)-dione] | 250% | 3.2 µM | –
COc1ccc(-c2nc3c(c(=O)c4ccccc4n3C)c(=O)n2C2CCCCC2)cc1 [Example 2.27, 3-cyclohexyl-2-(4-methoxyphenyl)-10-methylpyrimido[4,5-b]quinoline-4,5(3H,10H)-dione] | – | – | Emax at 25 µM [4]: 97%
CC(C)c1nc2c(c(=O)c3ccccc3n2CCO)c(=O)n1-c1ccccc1 [Example 1.42, 10-(2-hydroxyethyl)-2-isopropyl-3-phenylpyrimido[4,5-b]quinoline-4,5(3H,10H)-dione] | 117% | 15.7 µM | –
